From patent US20250034216A1, “STEREOSELECTIVE COVALENT LIGANDS FOR ONCOGENIC AND IMMUNOLOGICAL PROTEINS” (The Scripps Research Institute, priority 2021, published 2025)

Columns and labels:
Assay in all cases: IA-DTB cysteine engagement, GluC + trypsin digest
Type in all cases: binding
Conditions in all cases: 22Rv1 cells
PSME1 101 = biological target: T1, PSME1 101 (Homo sapiens, UniProt Q06323)
T1 construct: stereoselectively engaged C22 of endogenous PSME1 in 22Rv1 cells; endogenous in cells; host or cells: 22Rv1
T1 sequence (Q06323 whole entry): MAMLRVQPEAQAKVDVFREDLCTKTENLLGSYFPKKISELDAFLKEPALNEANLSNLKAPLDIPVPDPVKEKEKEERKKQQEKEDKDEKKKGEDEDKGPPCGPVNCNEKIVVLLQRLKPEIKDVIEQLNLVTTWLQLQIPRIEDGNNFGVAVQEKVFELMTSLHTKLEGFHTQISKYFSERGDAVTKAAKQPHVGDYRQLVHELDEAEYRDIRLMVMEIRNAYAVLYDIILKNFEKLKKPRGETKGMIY
Procedure: (§1) Sample preparation: Cells (adherent: 15 cm dishes, suspension: 2 million cells/mL) were treated with electrophilic probes in situ for indicated times and concentrations, washed with ice-cold PBS, and flash frozen in liquid nitrogen. Cell pellets were lysed by sonication (8 pulses, 40% power) in 500 μL ice-cold PBS supplemented with cOmplete protease inhibitors (1 tablet/10 mL of PBS). Whole cell lysates protein content was measured using a standard DC protein assay (Bio-Rad) and 500 μL (2 mg/mL protein content) were treated with 5 μL of 10 mM 1A-DTB (in DMSO) for 1 h at ambient temperature with occasional vortexing. Samples were methanol-chloroform precipitated with the addition of 500 μL ice-cold MeOH and 200 μL CHCl3, vortexed, and centrifuged (10 min, 10,000 g). Without disrupting the protein disk, both top and bottom layers were aspirated and the protein disk was washed with 1 mL ice-cold MeOH and centrifuged (10 min, 10,000 g). The pellets were allowed to air dry, and then re-suspended in 90 μL buffer (9 M urea, 10 mM DTT, 50 mM TEAB pH 8.5). Samples were reduced by heating at 65 C for 20 minutes and water bath sonicated as needed to resuspend the protein pellets, followed by alkylation via addition of 10 μL (500 mM) iodoacetamide and incubated at 37 C for 30 min with shaking. Samples were briefly centrifuged, and probe sonicated once more to ensure complete resuspension, and then diluted with 300 μL buffer (50 mM TEAB pH 8.5) to reach final concentration of 2 M urea. […] Digested samples were then diluted with 300 μL wash buffer (50 mM TEAB pH 8.5, 150 mM NaCl, 0.2% NP-40) containing streptavidin-agarose beads (50 μL of 50% slurry in wash buffer) and were rotated at room temperature for 2 hours. Enriched samples were pelleted by centrifugation (2000 g, 2 min) and transferred to BioSpin columns and washed (3×1 mL wash buffer, 3×1 mL PBS, 3×1 mL water). Enriched peptides were eluted by 300 μL 50% acetonitrile with 0.1% formic acid and eluate was evaporated to dryness via speedvac. IA-DTB labeled and enriched peptides were resuspended in 100 μL EPPS buffer (200 mM, pH 8.0) with 30% acetonitrile, vortexed, and water bath sonicated. Samples were TMT labeled with 3 μL of corresponding TMT tag (5 mg tag resuspended in 256 μL acetonitrile), vortexed, and incubated at room temperature for 1 hour. TMT labeling was quenched with the addition of hydroxylamine (5 μL 5% solution in H2O) and incubated for 15 minutes at room temperature. Samples were then acidified with 5 μL formic acid, combined and dried using a SpeedVac. Samples were desalted via Sep-Pak and then high pH fractionated.
(§2) Data processing: Cysteine engagement ratios (probe vs DMSO) were calculated for each peptide-spectra match by dividing each TMT reporter ion intensity by the average intensity for the channels corresponding to DMSO treatment. Peptide-spectra matches were then grouped based on protein ID and residue number (e.g., PSME1 C22), […] ion intensities for the DMSO channels <10,000, coefficient of variation for DMSO channels >0.5, […] TMT reporter ion intensities were normalized to the median summed signal intensity across channels.
(§3) Samples were analyzed by liquid chromatography tandem mass-spectrometry using an Orbitrap Fusion mass spectrometer (Thermo Scientific) coupled to an UltiMate 3000 Series Rapid Separation LC system and autosampler (Thermo Scientific Dionex). The peptides were eluted onto a capillary column (75 μm inner diameter fused silica, packed with C18 (Waters, Acquity BEH C18, 1.7 μm, 25 cm)) or an EASY-Spray HPLC column (Thermo ES902, ES903) using an Acclaim PepMap 100 (Thermo 164535) loading column, and separated at a flow rate of 0.25 μL/min. Data was acquired using an MS3-based TMT method on Orbitrap Fusion or Orbitrap Eclipse Tribrid Mass Spectrometers. […]

PSME1 106 = biological target: T2, PSME1 106 (Homo sapiens, UniProt Q06323)
T2 construct: stereoselectively engaged C22 of endogenous PSME1 in 22Rv1 cells; endogenous in cells; host or cells: 22Rv1
T2 sequence (Q06323 whole entry): as above
Procedure: as §1, §2, §3

SF3B1 1035 = biological target: T3, SF3B1 1035 (Homo sapiens, UniProt O75533+Q7RTV0)
T3 construct: Cysteine engagement data from 22Rv1 cells treated; endogenous in cells; host or cells: 22Rv1
T3 sequence (O75533 whole entry): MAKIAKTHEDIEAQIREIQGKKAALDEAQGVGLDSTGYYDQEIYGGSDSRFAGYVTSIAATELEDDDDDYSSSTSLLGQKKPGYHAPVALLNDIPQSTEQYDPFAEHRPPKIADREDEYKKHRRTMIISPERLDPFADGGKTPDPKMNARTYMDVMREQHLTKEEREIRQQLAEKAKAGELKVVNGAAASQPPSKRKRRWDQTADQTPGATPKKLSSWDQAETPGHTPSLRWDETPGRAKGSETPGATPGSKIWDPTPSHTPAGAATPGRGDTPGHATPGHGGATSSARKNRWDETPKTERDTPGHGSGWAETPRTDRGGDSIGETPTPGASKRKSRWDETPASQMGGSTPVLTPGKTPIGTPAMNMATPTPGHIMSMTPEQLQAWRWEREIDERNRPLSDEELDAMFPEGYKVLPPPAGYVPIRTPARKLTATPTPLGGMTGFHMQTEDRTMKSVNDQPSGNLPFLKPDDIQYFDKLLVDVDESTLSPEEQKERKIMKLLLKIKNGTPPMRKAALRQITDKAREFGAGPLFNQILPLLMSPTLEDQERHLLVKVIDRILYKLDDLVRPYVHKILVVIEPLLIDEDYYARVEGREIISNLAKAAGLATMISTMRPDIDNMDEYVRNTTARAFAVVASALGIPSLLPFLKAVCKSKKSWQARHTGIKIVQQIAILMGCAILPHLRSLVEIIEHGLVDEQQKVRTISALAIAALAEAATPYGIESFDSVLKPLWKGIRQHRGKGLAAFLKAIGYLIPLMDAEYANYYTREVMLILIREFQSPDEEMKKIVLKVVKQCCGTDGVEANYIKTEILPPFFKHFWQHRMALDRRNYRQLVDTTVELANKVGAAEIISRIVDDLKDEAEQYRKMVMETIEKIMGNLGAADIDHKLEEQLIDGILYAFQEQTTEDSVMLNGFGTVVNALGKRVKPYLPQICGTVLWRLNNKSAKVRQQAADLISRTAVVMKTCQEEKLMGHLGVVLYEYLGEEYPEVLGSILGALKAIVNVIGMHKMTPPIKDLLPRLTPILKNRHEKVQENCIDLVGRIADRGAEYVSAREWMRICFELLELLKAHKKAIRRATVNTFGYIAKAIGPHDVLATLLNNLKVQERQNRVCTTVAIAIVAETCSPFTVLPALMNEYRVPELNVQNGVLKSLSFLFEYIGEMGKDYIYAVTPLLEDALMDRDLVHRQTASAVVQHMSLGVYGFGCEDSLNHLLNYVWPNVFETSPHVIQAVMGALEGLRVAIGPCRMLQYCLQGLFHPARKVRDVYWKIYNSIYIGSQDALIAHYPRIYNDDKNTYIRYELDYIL
T3 sequence (Q7RTV0 whole entry): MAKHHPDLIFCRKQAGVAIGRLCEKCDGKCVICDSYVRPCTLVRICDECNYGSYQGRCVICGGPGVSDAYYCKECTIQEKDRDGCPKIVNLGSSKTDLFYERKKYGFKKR
T3 sequence (Q15393 whole entry partner): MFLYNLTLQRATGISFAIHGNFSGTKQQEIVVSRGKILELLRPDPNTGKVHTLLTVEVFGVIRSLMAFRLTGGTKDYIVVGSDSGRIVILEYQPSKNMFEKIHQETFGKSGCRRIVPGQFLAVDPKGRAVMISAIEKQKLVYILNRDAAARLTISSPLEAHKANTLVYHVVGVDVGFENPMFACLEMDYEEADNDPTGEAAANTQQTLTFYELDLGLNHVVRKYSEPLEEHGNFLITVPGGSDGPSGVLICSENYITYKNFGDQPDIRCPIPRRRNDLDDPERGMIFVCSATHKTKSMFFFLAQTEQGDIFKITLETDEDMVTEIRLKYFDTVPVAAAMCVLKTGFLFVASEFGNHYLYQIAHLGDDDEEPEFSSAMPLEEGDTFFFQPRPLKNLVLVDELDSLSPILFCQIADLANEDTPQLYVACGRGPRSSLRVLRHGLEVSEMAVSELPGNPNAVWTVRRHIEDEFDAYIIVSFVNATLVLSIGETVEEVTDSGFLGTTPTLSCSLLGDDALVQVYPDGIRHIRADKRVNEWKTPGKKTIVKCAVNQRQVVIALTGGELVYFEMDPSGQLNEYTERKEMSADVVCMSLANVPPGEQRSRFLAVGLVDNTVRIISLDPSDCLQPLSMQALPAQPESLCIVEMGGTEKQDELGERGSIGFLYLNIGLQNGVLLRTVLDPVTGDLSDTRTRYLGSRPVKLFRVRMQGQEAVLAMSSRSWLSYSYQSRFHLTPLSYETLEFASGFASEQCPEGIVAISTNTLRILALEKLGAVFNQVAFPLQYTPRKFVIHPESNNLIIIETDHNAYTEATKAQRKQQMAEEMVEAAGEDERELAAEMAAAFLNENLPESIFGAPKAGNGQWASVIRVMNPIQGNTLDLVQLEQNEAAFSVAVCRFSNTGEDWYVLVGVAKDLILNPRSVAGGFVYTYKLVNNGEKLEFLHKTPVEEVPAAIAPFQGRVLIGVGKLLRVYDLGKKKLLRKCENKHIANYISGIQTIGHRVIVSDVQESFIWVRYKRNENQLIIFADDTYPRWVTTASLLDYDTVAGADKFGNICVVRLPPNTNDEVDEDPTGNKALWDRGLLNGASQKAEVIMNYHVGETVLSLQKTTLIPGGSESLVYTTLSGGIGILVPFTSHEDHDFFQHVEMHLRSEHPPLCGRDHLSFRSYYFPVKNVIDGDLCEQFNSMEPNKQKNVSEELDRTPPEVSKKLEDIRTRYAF
T3 sequence (Q9BWJ5 whole entry partner): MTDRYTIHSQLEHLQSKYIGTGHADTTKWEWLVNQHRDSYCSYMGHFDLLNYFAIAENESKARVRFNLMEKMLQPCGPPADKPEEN
Procedure: as §1, §2, §3

SF3B1 1123 = biological target: T4, SF3B1 1123 (Homo sapiens, UniProt O75533+Q7RTV0)
T4 construct: Cysteine engagement data from 22Rv1 cells treated; endogenous in cells; host or cells: 22Rv1
T4 sequence (O75533 whole entry): as the sequence (O75533 whole entry) above
T4 sequence (Q7RTV0 whole entry): as the sequence (Q7RTV0 whole entry) above
T4 sequence (Q15393 whole entry partner): as the sequence (Q15393 whole entry partner) above
T4 sequence (Q9BWJ5 whole entry partner): as the sequence (Q9BWJ5 whole entry partner) above
Procedure: as §1, §2, §3

SF3B1 1244 = biological target: T5, SF3B1 1244 (Homo sapiens, UniProt O75533+Q7RTV0)
T5 construct: Cysteine engagement data from 22Rv1 cells treated; endogenous in cells; host or cells: 22Rv1
T5 sequence (O75533 whole entry): as the sequence (O75533 whole entry) above
T5 sequence (Q7RTV0 whole entry): as the sequence (Q7RTV0 whole entry) above
T5 sequence (Q15393 whole entry partner): as the sequence (Q15393 whole entry partner) above
T5 sequence (Q9BWJ5 whole entry partner): as the sequence (Q9BWJ5 whole entry partner) above
Procedure: as §1, §2, §3

SF3B1 796 = biological target: T6, SF3B1 796 (Homo sapiens, UniProt O75533)
T6 construct: endogenous in cells; host or cells: 22Rv1
T6 sequence (O75533 whole entry): as the sequence (O75533 whole entry) above
Procedure: as §1, §2, §3

SF3B1 965 = biological target: T7, SF3B1 965 (Homo sapiens, UniProt O75533+Q7RTV0)
T7 construct: Cysteine engagement data from 22Rv1 cells treated; endogenous in cells; host or cells: 22Rv1
T7 sequence (O75533 whole entry): as above
T7 sequence (Q7RTV0 whole entry): as the sequence (Q7RTV0 whole entry) above
T7 sequence (Q15393 whole entry partner): as the sequence (Q15393 whole entry partner) above
T7 sequence (Q9BWJ5 whole entry partner): as the sequence (Q9BWJ5 whole entry partner) above
Procedure: as §1, §2, §3

Compound	percent engagement relative to DMSO, PSME1 101 (PSME1 101; 5 uM) [%]	percent engagement relative to DMSO, PSME1 101 (PSME1 101; 20 uM) [%]	percent engagement relative to DMSO, PSME1 106 (PSME1 106; 5 uM) [%]	percent engagement relative to DMSO, PSME1 106 (PSME1 106; 20 uM) [%]	percent engagement relative to DMSO, SF3B1 1035 (SF3B1 1035; 5 uM) [%]	percent engagement relative to DMSO, SF3B1 1035 (SF3B1 1035; 20 uM) [%]	percent engagement relative to DMSO, SF3B1 1123 (SF3B1 1123; 5 uM) [%]	percent engagement relative to DMSO, SF3B1 1123 (SF3B1 1123; 20 uM) [%]	percent engagement relative to DMSO, SF3B1 1244 (SF3B1 1244; 5 uM) [%]	percent engagement relative to DMSO, SF3B1 1244 (SF3B1 1244; 20 uM) [%]	percent engagement relative to DMSO, SF3B1 796 (SF3B1 796; 5 uM) [%]	percent engagement relative to DMSO, SF3B1 796 (SF3B1 796; 20 uM) [%]	percent engagement relative to DMSO, SF3B1 965 (SF3B1 965; 5 uM) [%]	percent engagement relative to DMSO, SF3B1 965 (SF3B1 965; 20 uM) [%]
C=CC(=O)N1[C@H](c2ccc3c(c2)OCO3)c2[nH]c3ccccc3c2C[C@H]1C(=O)N1CCOCC1 [WX-02-23, 1-((1R,3S)-1-(benzo[d][1,3]dioxol-S-yl)-3-(morpholine-4-carbonyl)-1,3,4,9-tetrahydro-2H-pyrido [3,4-b]indol-2-yl)prop-2-en-1-one]	−4.575	−14.73	−4.44	−17.66	−9.265	−6.03	5.965	21.005	−11.92	−12.54	−6.42	−5.075	−15.75	−8.665
C=CC(=O)N1[C@@H](c2ccc3c(c2)OCO3)c2[nH]c3ccccc3c2C[C@@H]1C(=O)N1CCOCC1 [WX-02-43, 1-((1S,3R)-1-(benzo[d][1,3]dioxol-5-yl)-3-(morpholine-4-carbonyl)-1,3,4,9-tetrahydro-2H-pyrido [3,4-b]indol-2-yl)prop-2-en-1-one]	−9.325	−5.635	−7.69	−20.355	1.53	8.13	1.425	21.84	−1.065	−1.615	6.755	7.34	1.985	13.895
